* marks the point of attachment. FITC = O=C1OC2(c3ccc(O)cc3Oc3cc(O)ccc32)c2ccc(NC(=S)*)cc21; Ahx = NCCCCCC(=O)O
Columns and labels:
[1] = test system: Human neonate foreskin fibroblasts (ATCC Catalogue No. CRL-2097); experiment: Evaluation of cell membrane permeability function (1), confocal laser scanning microscopy of fluorescently labeled peptide; assay type: cell-based; conditions: 1 μM sample
Protocol: Human neonate foreskin fibroblasts (ATCC Catalogue No. CRL-2097) were used as the eukaryotic cells, and the cell membrane permeability capability of the two samples (constructs for transferring a foreign substance) obtained in Example 1 above was investigated.
More specifically, the abovementioned fibroblasts were cultured in a liquid mixture of 90% Eagle MEM culture medium (containing 0.1% nonessential amino acids, 2 mM L-glutamine, 1 mM sodium pyruvate, and 1.5 g/L sodium hydrogen carbonate) and 10% serum (FBS) as the culture medium.
The cultured cells were trypsinized for 1 min at 37° C. with a 0.25% trypsin solution. After the abovementioned treatment, the trypsin was deactivated with FBS-containing medium, and a cell suspension (test sample for foreign substance transfer) was prepared by adjusting the cell concentration to approximately 5×10^4 cells/mL with the culture medium.
Next, 0.5 mL of the abovementioned cell suspension was placed in a designated cell culturing container (culture slide with a surface coating of 0.1% gelatin), and the cells were incubated overnight at 37° C. in a 5% CO2 atmosphere. After incubation the medium was replaced with fresh culture medium, and the 1 mM sample solutions of each of the samples prepared in abovementioned Example 1 were added to a cell culture container so that the final sample concentration (peptide concentration) would be 1 μM. In this case 0.5 μL of sample solution was added to the container. Then the samples were incubated at 37° C. for either 1 or 4 hours in a 5% CO2 atmosphere.
The cells after 1 hour of culture and the cells after 4 hours of culture were each rinsed in PBS (phosphate buffered saline) and fixed with methanol (on ice for 10 min).
Next the methanol-fixed samples (cells) were mounted using Prolong® Gold Antifade Reagent (Invitrogen) that contains the nuclear stain DAPI (4′,6-diamidino-2-phenylindole). Then the localization within the cells of the peptide bonded to the fluorescent dye (i.e., fluorescently labeled peptide) in each test sample (i.e., the abovementioned mounted test samples after methanol fixation) was verified using a confocal scanning laser microscope.
FIGS. 1 and 2 are micrographs showing the results when abovementioned Sample No. 1 was added to the liquid suspension of cells.

[2] = test system: human iPS cells (cell line 201B2-082008KU); experiment: Evaluation of cell membrane permeability function (2), confocal laser scanning microscopy of fluorescently labeled peptide; assay type: cell-based; conditions: 1 μM sample; for penetration of the cell membrane from outside the cell / transfer into the cells: 1 hour culture (FIGS. 3, 4), methanol fixed
From the text: The target cells for transferring the foreign substance were changed from human neonate foreskin fibroblasts to human iPS cells (human induced pluripotent stem cells), and the cell membrane permeability capability of the two samples (constructs for transferring a foreign substance) obtained in Example 1 above was investigated. It should also be noted that the iPS cells (cell line 201B2-082008KU) and the mouse embryonic fibroblast feeder cells (cell line SNL 76/7, hereinafter “MEF”) used in this example were provided by the Yamanaka Research Laboratory of the Institute for Frontier Medical Sciences, Kyoto University (professor Shinya Yamanaka).
First the obtained MEF were inactivated by a mitomycin C treatment (3 hours) and then trypsinized in a 0.25% trypsin solution containing 1 mM EDTA. After the above treatment, the trypsin was deactivated with culture medium containing FBS, and the MEF were adjusted to a suitable cell density using D-MEM medium (Dulbecco's Modified Eagle Medium: Gibco) containing MEF culture medium (7% FBS: Gibco), 2 mM L-glutamine (Gibco), 50 units/mL penicillin, and 50 μg/mL streptomycin (Gibco), and the abovementioned MEF were seeded onto a culture container (in the form of a culture slide or plate) with a surface coating of 0.1% gelatin. In this case, the MEF were seeded so that the cell density would be approximately 1.25×10^5 cells/mL. Next, the abovementioned cell culture containers were incubated overnight at 37° C. in a 5% CO2 atmosphere.
Thereafter, the feeder cells were prepared by removing the MEF culture medium and rinsing with PBS.
Separately, CTK solution (0.25% trypsin solution containing 0.1 mg/mL collagenase IV (Gibco), 1 mM calcium chloride, and 20% KSR (KnockOut® Serum Replacement)) was added to the obtained iPS cell line, the MEF were peeled therefrom, and the cells were rinsed with PBS.
Next, 1 mL hESC culture medium (i.e., human ES cell medium, in this case, DMEM/F12 culture medium (Gibco) containing 20% KSR (Gibco), 2 mM L-glutamine (Gibco), 0.1% nonessential amino acids (Gibco), 0.1 mM 2-mercaptoethanol (Gibco), 50 units/mL penicillin, and 50 μg/mL streptomycin (Invitrogen, 4 ng/mL bFGF (basic fibroblast growth factor)) was added, the iPS cells were peeled off using a cell scraper, and the colony was broken apart by gentle pipetting.
A suspension of iPS cells obtained in this manner was seeded onto the feeder cells in the culture containers that had been prepared as described above. Then, the abovementioned hESC medium was added, and the cell culture containers were incubated overnight at 37° C. in a 5% CO2 atmosphere.
After incubation overnight, the culture medium was removed from the culture containers, and the abovementioned hESC medium to which one of the 1 mM sample solutions prepared in abovementioned Example 1 had been added to make a final sample concentration (pipetted concentration) of 1 μM was added to the culture containers. Then the samples were incubated at 37° C. for either 1 or 4 hours in a 5% CO2 atmosphere.
The cells after 1 hour of culture and cells after 4 hours of culture were each rinsed in PBS (phosphate buffered saline) and fixed with methanol (on ice for 10 min).
Next, the same treatment as in Example 2 was performed, and the localization within the iPS cells of the peptide that was bonded to the fluorescent dye (i.e., fluorescently labeled) was verified using a confocal scanning laser microscope. FIG. 3 is a micrograph showing the results after 1 hour of culture of the cell suspension to which abovementioned Sample No. 1 had been added, and FIG. 4 is a micrograph after 1 hour of culture of the cell suspension to which abovementioned Sample No. 2 had been added.

| Substance | cell membrane permeability [1] | translocation into the nucleus (DAPI nuclear staining) ([1]; 1 or 4 hours culture) | penetration of the cell membrane from outside the cell / transfer into the cells ([1]; 1 or 4 hours culture, methanol fixed) | cell membrane permeability [2] | translocation into the nucleus (DAPI nuclear staining) [2] | penetration of the cell membrane from outside the cell / transfer into the cells [2] |
| --- | --- | --- | --- | --- | --- | --- |
| (FAM)-WRRQARFK [Sample No. 1] | exhibited excellent cell membrane permeability | had translocated into the nucleus | penetrated the cell membrane from outside the cell rapidly after it was added, and thus was transferred into the cells | exhibited excellent cell membrane permeability | had further translocated into the nucleus | penetrated the cell membrane from outside the cell rapidly after addition and were transferred into the cells |
| (FITC)-(Acp)-WRRQARFKGTLKERCLQVVRSLVK ({FITC-Ahx}-WRRQARFKGTLKERCLQVVRSLVK-NH2; SMILES CC(C)C[C@H](NC(=O)[C@H](CS)NC(=O)[C@H](CCCNC(=N)N)NC(=O)[C@H](CCC(=O)O)NC(=O)[C@H](CCCCN)NC(=O)[C@H](CC(C)C)NC(=O)[C@@H](NC(=O)CNC(=O)[C@H](CCCCN)NC(=O)[C@H](Cc1ccccc1)NC(=O)[C@H](CCCNC(=N)N)NC(=O)[C@H](C)NC(=O)[C@H](CCC(N)=O)NC(=O)[C@H](CCCNC(=N)N)NC(=O)[C@H](CCCNC(=N)N)NC(=O)[C@H](Cc1c[nH]c2ccccc12)NC(=O)CCCCCNC(=S)Nc1ccc2c(c1)C(=O)OC21c2ccc(O)cc2Oc2cc(O)ccc21)[C@@H](C)O)C(=O)N[C@@H](CCC(N)=O)C(=O)N[C@H](C(=O)N[C@H](C(=O)N[C@@H](CCCNC(=N)N)C(=O)N[C@@H](CO)C(=O)N[C@@H](CC(C)C)C(=O)N[C@H](C(=O)N[C@@H](CCCCN)C(N)=O)C(C)C)C(C)C)C(C)C) [Sample No. 2, FITC bonded via linker Acp (6-aminohexanoic acid) to the N-terminus of Peptide 2; construct for transferring a foreign substance] | exhibited excellent cell membrane permeability | – | – | exhibited excellent cell membrane permeability | had further translocated into the nucleus | penetrated the cell membrane from outside the cell rapidly after addition and were transferred into the cells |
